Assay results: the supplement of paper PMC11208160

Experiment: recombinant UMI read abundance after kanamycin selection (control-corrected) (log10(CPM+1)); higher = more efficient recombination; extreme values may be limits of the assay; sequences stand for … in AGTGCAGAGAAAATCGGCCAGTTTTCTCTGCCTGCAGTCCGCATGCCGTGGGACCCCTTGGGTTCTAACCTGTTGCCTAGATTTATGCAGCGGACTGCCTTTCTCCCAAAGTGATAAACCGG…AGGTTGGTTTCACT; site = the 11-nt donor
Outline: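 The measure is log10(CPM+1) for recombinant UMIs. These were PCR-amplified across the donor–target junction and sequenced after Escherichia coli carrying a donor and donor-binding-loop pair library and a target plasmid with T7-inducible IS621 bridge recombinase was plated on IPTG (0.07 mM) plus kanamycin or unselected. CPM were averaged over two replicates and scaled by control-derived factors.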
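Further: IS621 bridge recombinase in Escherichia coli cells against a fixed T5 target plasmid.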

Sequence | recombinant UMI read abundance (log10)
GCAAAAGCATGGACCGGTTTTCCCGGTAATCCGTATTTGCC (site GCAAAAGCTGG) | 0.282
GCAACCTCATGGACCGGTTTTCCCGGTAATCCGTATTTGCT (site GCAACCTCTAG) | 1.91
GCAACTGCATGGACCGGTTTTCCCGGTAATCCGTATTTGGC (site GCAACTGCTGC) | 1.95
GCAAGAACATGGACCGGTTTTCCCGGTAATCCGTATTTGAC (site GCAAGAACTGT) | 2.57
GCAAGCGCATGGACCGGTTTTCCCGGTAATCCGTATTTGAT (site GCAAGCGCTAT) | 2.29
GCACCATCATGGACCGGTTTTCCCGGTAATCCGTATTTGTA (site GCACCATCTTA) | 2.47
GCACGACCATGGACCGGTTTTCCCGGTAATCCGTATTTGGG (site GCACGACCTCC) | 0.0133
GCACGCGCATGGACCGGTTTTCCCGGTAATCCGTATTTGGT (site GCACGCGCTAC) | 1.22
GCAGATTCATGGACCGGTTTTCCCGGTAATCCGTATTTGGG (site GCAGATTCTCC) | 0.609
GCAGGTACATGGACCGGTTTTCCCGGTAATCCGTATTTGAC (site GAAGGTACTGT) | 0.00935
GCAGGTACATGGACCGGTTTTCCCGGTAATCCGTATTTGAC (site GCAGGTACTGT) | 1.91
GCAGGTACATGGACCGGTTTTCCCGGTAATCCGTATTTGAC (site GGAGGTACTGT) | 0
GCAGGTACATGGACCGGTTTTCCCGGTAATCCGTATTTGAC (site GTAGGTACTGT) | 2.1
GCAGTAACATGGACCGGTTTTCCCGGTAATCCGTATTTGCA (site ACAGTATCTTG) | 0.498
GCAGTAACATGGACCGGTTTTCCCGGTAATCCGTATTTGCA (site GCAGTAACTTG) | 2.83
GCAGTCCCATGGACCGGTTTTCCCGGTAATCCGTATTTGCC (site GCAGTCCCTGG) | 0

Sequence | recombinant UMI read abundance (log10)
GCAGTCGCATGGACCGGTTTTCCCGGTAATCCGTATTTGCG (site GAAGTCGCTCG) | 0.00976
GCAGTCGCATGGACCGGTTTTCCCGGTAATCCGTATTTGCG (site GCAGTCGCTCG) | 0.764
GCAGTCGCATGGACCGGTTTTCCCGGTAATCCGTATTTGCG (site GGAGTCGCTCG) | 0.00641
GCAGTCGCATGGACCGGTTTTCCCGGTAATCCGTATTTGCG (site GTAGTCGCTCG) | 0.0117
GCAGTCTCATGGACCGGTTTTCCCGGTAATCCGTATTTGCA (site ACAGTATCTTG) | 2.38
GCAGTCTCATGGACCGGTTTTCCCGGTAATCCGTATTTGCA (site GCAGTCTCTTG) | 2.87
GCATATCCATGGACCGGTTTTCCCGGTAATCCGTATTTGAC (site GCATATCCTGT) | 1.39
GCATCGGCATGGACCGGTTTTCCCGGTAATCCGTATTTGCC (site GCATCGGCTGG) | 0.599
GCCAACTCATGGACCGGTTTTCCCGGTAATCCGTATTTGCG (site GCCAACTCTCG) | 1.98
GCCAATTCATGGACCGGTTTTCCCGGTAATCCGTATTTGGG (site GCCAATTCTCC) | 0.183
GCCACAGCATGGACCGGTTTTCCCGGTAATCCGTATTTGCT (site GCCACAGCTAG) | 1.2
GCCACGCCATGGACCGGTTTTCCCGGTAATCCGTATTTGTA (site ACCACGCCTTA) | 0.145
GCCACGCCATGGACCGGTTTTCCCGGTAATCCGTATTTGTA (site CCCACGCCTTA) | 0.0175
GCCACGCCATGGACCGGTTTTCCCGGTAATCCGTATTTGTA (site GACACGCCTTA) | 0.0176
GCCACGCCATGGACCGGTTTTCCCGGTAATCCGTATTTGTA (site GCAACGCCTTA) | 0
GCCACGCCATGGACCGGTTTTCCCGGTAATCCGTATTTGTA (site GCCAAGCCTTA) | 0.00579
